Target: CD73 (Homo sapiens (Human), UniProt P21589)
Assay: CD73 enzyme inhibition assay (Malachite Green Phosphate Detection Kit)
Assay type: biochemical
Settings: CD73 protein 0.5 μg/mL (2x), Tris-HCl pH 7.3, OD 620 nm; read-out: Potency (IC50 class), inhibitory activity in CD73 enzyme assay
Protocol: To evaluate the inhibitory effect of selected compounds on CD73, Malachite Green Phosphate Detection Kit (R&D, Cat #DY996) was used. Briefly, compounds were dissolved and diluted to the desired concentration using phosphate-free buffer (Tris-HCl, pH 7.3). 25 μL of the compound solution was added to an equal volume of CD73 protein solution (2× concentration, 0.5 μg/mL, Novoprotein, Cat #C446), followed by a 5-minute incubation at room temperature. 10 μL of Malachite Green Reagent A was added to each well, mixed thoroughly and incubated for 10 minutes at room temperature. 10 μL of Malachite Green Reagent B was then added to each well, mixed thoroughly and incubated for 20 minutes at room temperature. Finally, the optical density of each well was determined using a microplate reader set to 620 nm.

CD73, sequence (P21589 27-574): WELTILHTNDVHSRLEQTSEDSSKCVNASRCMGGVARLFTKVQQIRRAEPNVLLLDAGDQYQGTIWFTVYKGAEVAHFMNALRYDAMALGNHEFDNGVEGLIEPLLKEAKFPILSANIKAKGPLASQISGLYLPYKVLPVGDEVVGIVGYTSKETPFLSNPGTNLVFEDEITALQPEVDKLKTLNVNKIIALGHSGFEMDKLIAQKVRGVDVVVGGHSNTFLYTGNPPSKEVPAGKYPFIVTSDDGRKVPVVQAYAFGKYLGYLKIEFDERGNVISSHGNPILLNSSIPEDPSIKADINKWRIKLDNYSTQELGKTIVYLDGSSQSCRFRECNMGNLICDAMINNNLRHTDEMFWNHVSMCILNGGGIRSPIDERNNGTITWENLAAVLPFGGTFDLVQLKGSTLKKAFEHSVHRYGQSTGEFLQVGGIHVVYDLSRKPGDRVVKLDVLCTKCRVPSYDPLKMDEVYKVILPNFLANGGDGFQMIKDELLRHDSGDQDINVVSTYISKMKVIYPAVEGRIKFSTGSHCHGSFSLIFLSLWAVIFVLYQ

| IC50 | Compound |
| --- | --- |
| < 10 nM | O=P(O)(O)CP(=O)(O)OC[C@H]1O[C@@H](n2cnc3c(NCc4ccccc4)nc(Cl)nc32)[C@@H](O)C1O (stereo partly drawn) [Compound 1] |
| 10 to 100 nM | CC1(C)OC2C(O1)[C@@H](COP(=O)(O)CP(=O)(O)O)O[C@H]2n1cnc2c(NCc3ccccc3)nc(Cl)nc21 (stereo partly drawn) [Compound 2] |
| < 10 nM | O=P(O)(O)CP(=O)(O)OC[C@H]1O[C@@H](n2cnc3c(NCc4cccc5ccccc45)nc(Cl)nc32)[C@@H](O)C1O (stereo partly drawn) [Compound 6] |
| < 10 nM | O=P(O)(O)CP(=O)(O)OC[C@H]1O[C@@H](n2cnc3c(NCc4ccc5ccccc5c4)nc(Cl)nc32)[C@@H](O)C1O (stereo partly drawn) [Compound 7] |
| 10 to 100 nM | CCCCCOC(=O)Nc1nc(Cl)nc2c1ncn2[C@@H]1O[C@H](COP(=O)(O)CP(=O)(O)O)C(O)C1O (stereo partly drawn) [Compound 8] |
| < 10 nM | C[C@]12C[C@@H]3C[C@](C)(C1)C[C@@](Nc1nc(Cl)nc4c1ncn4[C@@H]1O[C@H](COP(=O)(O)CP(=O)(O)O)C(O)[C@@H]1O)(C3)C2 (stereo partly drawn) [Compound 9] |
| 10 to 100 nM | O=P(O)(O)CP(=O)(O)OC[C@H]1O[C@@H](n2cnc3c(-n4c5ccccc5c5ccccc54)nc(Cl)nc32)C(O)C1O (stereo partly drawn) [Compound 10] |
| 10 to 100 nM | CCCCC/C=C\C/C=C\CCCCCCCC(=O)Nc1nc(Cl)nc2c1ncn2[C@@H]1O[C@H](COP(=O)(O)CP(=O)(O)O)C(O)C1O (stereo partly drawn) [Compound 11] |
| 10 to 100 nM | O=P(O)(O)CP(=O)(O)OC[C@H]1O[C@@H](n2cnc3c(Nc4ccc5ccccc5c4)nc(Cl)nc32)C(O)C1O (stereo partly drawn) [Compound 12] |
| < 10 nM | CCCCCCCCCCCCOC(=O)Nc1nc(Cl)nc2c1ncn2[C@@H]1O[C@H](COP(=O)(O)CP(=O)(O)O)C(O)[C@@H]1O (stereo partly drawn) [Compound 15] |
| 10 to 100 nM | O=C(CC12CC3CC(CC(C3)C1)C2)Nc1nc(Cl)nc2c1ncn2[C@@H]1O[C@H](COP(=O)(O)CP(=O)(O)O)C(O)[C@@H]1O (stereo partly drawn) [Compound 16] |
| < 10 nM | O=P(O)(O)CP(=O)(O)OC[C@H]1O[C@@H](n2cnc3c(NC4C5CC6CC(C5)CC4C6)nc(Cl)nc32)[C@@H](O)C1O (stereo partly drawn) [Compound 17] |
| 10 to 100 nM | CCCCCCCCCCCCNC(=O)Nc1nc(Cl)nc2c1ncn2[C@@H]1O[C@H](COP(=O)(O)CP(=O)(O)O)C(O)C1O (stereo partly drawn) [Compound 18] |
| > 100 nM | CCCCCCCCCCCCN(CCCCCCCCCCCC)c1nc(Cl)nc2c1ncn2[C@@H]1O[C@H](COP(=O)(O)CP(=O)(O)O)C(O)[C@@H]1O (stereo partly drawn) [Compound 19] |
| 10 to 100 nM | O=P(O)(O)CP(=O)(O)OC[C@H]1O[C@@H](n2cnc3c(Nc4ccc5cc6ccccc6cc5c4)nc(Cl)nc32)C(O)C1O (stereo partly drawn) [Compound 20] |
| < 10 nM | O=P(O)(O)CP(=O)(O)OC[C@H]1O[C@@H](n2cnc3c(NC45CC6CC(CC(C6)C4)C5)nc(Cl)nc32)[C@@H](O)C1O (stereo partly drawn) [Compound 22] |
| 10 to 100 nM | CC1(C)[C@@H]2CC[C@@]1(C)C(OC(=O)Cc1nc(Cl)nc3c1ncn3[C@@H]1O[C@H](COP(=O)(O)CP(=O)(O)O)C(O)C1O)C2 (stereo partly drawn) [Compound 23] |
| < 10 nM | O=P(O)(O)CP(=O)(O)OC[C@H]1O[C@@H](n2cnc3c(N4CCC5(CCCCC5)C4)nc(Cl)nc32)[C@@H](O)C1O (stereo partly drawn) [Compound 31] |

From patent US20230295213A1, “CD73 INHIBITORS AND PHARMACEUTICAL USES THEREOF” (RISEN (SUZHOU) PHARMA TECH CO., LTD., priority 2018, published 2023)
